Laboratory results published in patent US20240182945A1, “PRODUCTS FOR REGULATION OF EUKARYOTIC AND MICROBIAL CELLS GROWTH” (priority 2021, published 2024).

What was measured:
Format in all cases: cell-based
Conditions in all cases: Bacterial set #1; Meropenem (16 μg/mL); Columbia agar with erythrocytes 5%, 24 h at 37 C
[1] = tested on: MIX—PP +BM (P. aeruginosa with microbial modulators); experiment: Growth of mix PP + MM (original sputum) on antibiotic-supplemented Columbia agar
S. anginosus = experiment: Growth of microbial modulator alone on antibiotic-supplemented Columbia agar
P. aeruginosa = experiment: Growth of primary pathogen alone on antibiotic-supplemented Columbia agar
Experimental: Four sputum samples from patients with lung infections were used. Pure bacterial culture of each microorganisms was obtained by routine microbiological methods.
In this case this antibiotic at MIC of 16 ug/mL was used in the following studies. PP alone, or Microbial Modulators (MM) alone or the original sputum were plated on the wells of 24 well plate filled with nutrient Columbia agar supplemented with erythrocytes 5% and supplemented with antibiotics taken as MIC determined against PP, but not more than 16 μg/mL and incubated 24 h at 37 C.

B. sonorensis = experiment: Growth of microbial modulator alone on antibiotic-supplemented Columbia agar
E. coli = experiment: as above

Structure (SMILES): C[C@@H](O)[C@H]1C(=O)N2C(C(=O)O)=C(S[C@@H]3CN[C@H](C(=O)N(C)C)C3)[C@H](C)[C@H]12 [Meropenem]
- microbial growth, MIX (PP + MM) [1]: −
- microbial growth, SA (BM alone) (S. anginosus): −
- microbial growth, PA (PP alone) (P. aeruginosa): +
- microbial growth, BS (BM alone) (B. sonorensis): −
- microbial growth, EC (BM alone) (E. coli): +
